Source: PubChem BioAssay (NCI)
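96-well plates; 48 h exposure; 5 concentrations. Endpoints by linear interpolation between flanking doses. Not reached: highest tested concentration assigned. TGI: concentration producing complete growth inhibition.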

Columns and labels:
Experiment in all cases: NCI anticancer screen, dose series, 48 h
OVCAR-3 ovarian = tested on: OVCAR-3 ovarian
SW-620 colon = tested on: SW-620 colon
HS 578T breast = tested on: HS 578T breast
SK-MEL-28 melanoma = tested on: SK-MEL-28 melanoma
IGROV1 ovarian = tested on: IGROV1 ovarian
MDA-MB-435 = tested on: MDA-MB-435
HCT-15 colon = tested on: HCT-15 colon
KM12 colon = tested on: KM12 colon
CAKI-1 renal = tested on: CAKI-1 renal
SK-OV-3 ovarian = tested on: SK-OV-3 ovarian
K-562 leukemia = tested on: K-562 leukemia
HT29 colon = tested on: HT29 colon
RPMI-8226 leukemia = tested on: RPMI-8226 leukemia
SF-268 CNS = tested on: SF-268 CNS
U251 CNS = tested on: U251 CNS
SF-539 CNS = tested on: SF-539 CNS
LOX IMVI melanoma = tested on: LOX IMVI melanoma
COLO 205 colon = tested on: COLO 205 colon
NCI-H23 lung = tested on: NCI-H23 lung
786-0 renal = tested on: 786-0 renal
A498 renal = tested on: A498 renal
PC-3 prostate = tested on: PC-3 prostate
UACC-62 melanoma = tested on: UACC-62 melanoma
UO-31 renal = tested on: UO-31 renal
HOP-62 NSCLC = tested on: HOP-62 NSCLC
MDA-MB-231 breast = tested on: MDA-MB-231 breast
SR leukemia = tested on: SR leukemia
SNB-19 CNS = tested on: SNB-19 CNS
MOLT-4 leukemia = tested on: MOLT-4 leukemia
HOP-92 NSCLC = tested on: HOP-92 NSCLC
SK-MEL-2 melanoma = tested on: SK-MEL-2 melanoma
EKVX NSCLC = tested on: EKVX NSCLC
HL-60(TB) leukemia = tested on: HL-60(TB) leukemia
HCT-116 colon = tested on: HCT-116 colon
CCRF-CEM leukemia = tested on: CCRF-CEM leukemia
DU-145 prostate = tested on: DU-145 prostate
NCI-H460 lung = tested on: NCI-H460 lung
SN12C renal = tested on: SN12C renal
OVCAR-4 ovarian = tested on: OVCAR-4 ovarian
MCF7 breast = tested on: MCF7 breast
A549 NSCLC = tested on: A549 NSCLC
UACC-257 melanoma = tested on: UACC-257 melanoma
NCI-H226 lung = tested on: NCI-H226 lung
SK-MEL-5 melanoma = tested on: SK-MEL-5 melanoma
ACHN renal = tested on: ACHN renal
HCC-2998 colon = tested on: HCC-2998 colon
MDA-N = tested on: MDA-N
OVCAR-8 ovarian = tested on: OVCAR-8 ovarian
OVCAR-5 ovarian = tested on: OVCAR-5 ovarian
NCI-H522 lung = tested on: NCI-H522 lung
SF-295 CNS = tested on: SF-295 CNS
NCI/ADR-RES ovarian = tested on: NCI/ADR-RES ovarian
T-47D breast = tested on: T-47D breast
BT-549 breast = tested on: BT-549 breast
RXF 393 renal = tested on: RXF 393 renal
TK-10 renal = tested on: TK-10 renal
SNB-75 CNS = tested on: SNB-75 CNS
M14 melanoma = tested on: M14 melanoma

Work on O=C(/C=C/c1ccc(O)c(O)c1)Oc1ccccc1 yielded a TGI (OVCAR-3 ovarian) of 47.6 µM, a TGI (SW-620 colon) greater than 100 µM and a TGI (HS 578T breast) of 49 µM. For the same compound, the TGI (SK-MEL-28 melanoma) was greater than 100 µM, the TGI (IGROV1 ovarian) was 30.6 µM and the TGI (MDA-MB-435) was greater than 74.2 µM. The TGI (HCT-15 colon) was 36.2 µM, the TGI (KM12 colon) was 40.4 µM and the TGI (CAKI-1 renal) was 32.5 µM. For the same compound, the TGI (SK-OV-3 ovarian) was greater than 100 µM, the TGI (K-562 leukemia) was greater than 100 µM and the TGI (HT29 colon) was 48.8 µM. It also gave a TGI (RPMI-8226 leukemia) of 45 µM, a TGI (SF-268 CNS) of 32 µM and a TGI (U251 CNS) of 48.3 µM. The TGI (SF-539 CNS) was 88.5 µM, the TGI (LOX IMVI melanoma) was 21 µM and the TGI (COLO 205 colon) was 29.2 µM. It also gave a TGI (NCI-H23 lung) of 46.2 µM, a TGI (786-0 renal) of 48.1 µM and a TGI (A498 renal) greater than 100 µM. It also gave a TGI (PC-3 prostate) greater than 76.9 µM, a TGI (UACC-62 melanoma) of 35.9 µM and a TGI (UO-31 renal) of 30.5 µM. The TGI (HOP-62 NSCLC) was 49.2 µM, the TGI (MDA-MB-231 breast) was 61.8 µM and the TGI (SR leukemia) was 24.8 µM. It also gave a TGI (SNB-19 CNS) greater than 80.9 µM, a TGI (MOLT-4 leukemia) greater than 48.4 µM and a TGI (HOP-92 NSCLC) of 47.6 µM. For the same compound, the TGI (SK-MEL-2 melanoma) was 44 µM, the TGI (EKVX NSCLC) was greater than 72.9 µM and the TGI (HL-60(TB) leukemia) was 20.1 µM. It also gave a TGI (HCT-116 colon) of 34.6 µM, a TGI (CCRF-CEM leukemia) of 42.8 µM and a TGI (DU-145 prostate) of 43.8 µM. The TGI (NCI-H460 lung) was 51 µM, the TGI (SN12C renal) was 48.7 µM and the TGI (OVCAR-4 ovarian) was greater than 100 µM. The TGI (MCF7 breast) was 64.9 µM, the TGI (A549 NSCLC) was 59 µM and the TGI (UACC-257 melanoma) was greater than 81.8 µM. The TGI (NCI-H226 lung) was greater than 100 µM, the TGI (SK-MEL-5 melanoma) was 33 µM and the TGI (ACHN renal) was 41.7 µM. It also gave a TGI (HCC-2998 colon) greater than 58.8 µM, a TGI (MDA-N) greater than 81 µM and a TGI (OVCAR-8 ovarian) of 38.2 µM. It also gave a TGI (OVCAR-5 ovarian) greater than 96.3 µM, a TGI (NCI-H522 lung) of 1.95 µM and a TGI (SF-295 CNS) of 61.4 µM. For the same compound, the TGI (NCI/ADR-RES ovarian) was 43.5 µM, the TGI (T-47D breast) was 65.2 µM and the TGI (BT-549 breast) was 53.6 µM. For the same compound, the TGI (RXF 393 renal) was 40.1 µM, the TGI (TK-10 renal) was greater than 100 µM and the TGI (SNB-75 CNS) was 44.2 µM. It also gave a TGI (M14 melanoma) of 55.2 µM.
